Converted amounts (≈) assume the structure as drawn. Read-outs that look alike come from different tables or passages of the source.
Tested on: Streptococcus pyogenes
Test: In vitro MIC, conventional two-fold serial dilution technique in Brain-Heart Infusion broth, vs. Strep. pyogenes
Format: cell-based
Settings: read-out: MIC vs. Strep. pyogenes
Protocol: The antibacterial penam compounds, prepared from the products of the instant process invention, show activity against a wide variety of gram-positive and gram-negative bacteria. […] The broth is inoculated with the bacterial culture, and with the test antibiotic, and then it is incubated overnight. On the next day, the test is read visually. The minimum inhibitory concentration (MIC) is the lowest concentration of antibiotic which prevents turbidity, i.e., which prevents growth of the microorganism. In vitro activities of several of the penam compounds of the invention are presented later in this specification.
In vitro antibacterial activities for a number of compounds prepared by the procedure of Example 8 are presented below.
In Table II, the minimum inhibitory concentrations (MIC's) of compounds wherein R is hydrogen, against a strain of Streptococcus pyogenes are reported.

[1] = compounds wherein R is hydrogen, a strain of Streptococcus pyogenes, Brain-Heart Infusion broth, overnight

| Structure (SMILES) | MIC [1] [µg/mL] | MIC (Streptococcus pyogenes) [µg/mL] |
| --- | --- | --- |
| CC1(C)S[C@@H]2[C@H](NC(=O)C3(N)CCCCC3)C(=O)N2[C@H]1c1nnn[nH]1 [1-aminocyclohexylcarbonyl] | 25 (≈ 68.4 µM) |  |
| CC1(C)S[C@@H]2[C@H](NC(=O)OCc3ccccc3)C(=O)N2[C@H]1c1nnn[nH]1 [benzyloxycarbonyl] | < 0.1 |  |
| CC1(C)S[C@@H]2[C@H](NC(=O)CSc3ccncc3)C(=O)N2[C@H]1c1nnn[nH]1 [2-(4-pyridylthio)acetyl] |  | < 0.1 |
| CC1(C)S[C@@H]2[C@H](NC(=O)Cn3cnnn3)C(=O)N2[C@H]1c1nnn[nH]1 [2-(1-tetrazolyl)acetyl] | < 0.39 |  |
| CC1(C)S[C@@H]2[C@H](NC(=O)[C@H](N)c3cccc(O)c3)C(=O)N2[C@H]1c1nnn[nH]1 [D-2-amino-2-(m-hydroxyphenyl)acetyl] | < 0.1 |  |
| CC1(C)S[C@@H]2[C@H](NC(=O)CBr)C(=O)N2[C@H]1c1nnn[nH]1 [2-bromoacetyl] | < 0.1 |  |
| CC1(C)S[C@@H]2[C@H](NC(=O)[C@H](N)c3ccc(O)cc3)C(=O)N2[C@H]1c1nnn[nH]1 [D-2-amino-2-(p-hydroxyphenyl)acetyl, 6-(D-2-amino-2-[p-hydroxyphenyl]acetamido)-2,2-dimethyl-3-(5-tetrazolyl)penam] |  | < 0.1 |
| CC1(C)S[C@@H]2[C@H](NC(=O)[C@H](N)Cc3ccccc3)C(=O)N2[C@H]1c1nnn[nH]1 [D-2-amino-3-phenylpropionyl] | 0.39 (≈ 1.01 µM) |  |
| CC1(C)S[C@@H]2[C@H](NC(=O)COc3ccccc3)C(=O)N2[C@H]1c1nnn[nH]1 [2-phenoxyacetyl] | < 0.1 |  |
| CC1(C)S[C@@H]2[C@H](NC(=O)C(N=[N+]=[N-])c3ccccc3)C(=O)N2[C@H]1c1nnn[nH]1 (stereo partly shown) [2-azido-2-phenylacetyl] | < 0.1 |  |
| COc1cccc(OC)c1C(=O)N[C@@H]1C(=O)N2[C@@H]1SC(C)(C)[C@@H]2c1nnn[nH]1 [2,6-dimethoxybenzoyl] | < 0.2 |  |
| CC1(C)S[C@@H]2[C@H](NC(=O)Oc3ccccc3)C(=O)N2[C@H]1c1nnn[nH]1 [phenoxycarbonyl] |  | < 0.1 |
| CC1(C)S[C@@H]2[C@H](NC(=O)[C@@H](N)c3ccc(O)cc3)C(=O)N2[C@H]1c1nnn[nH]1 [L-2-amino-2-(p-hydroxyphenyl)acetyl] | < 0.1 |  |
| CC1(C)S[C@@H]2[C@H](NC(=O)Cc3ccccc3)C(=O)N2[C@H]1c1nnn[nH]1 [2-phenylacetyl, 6-(2-Phenylacetamido)-2,2-dimethyl-3-(5-tetrazolyl)penam] | < 0.1 |  |
| CCN=C(NCC)SCC(=O)N[C@@H]1C(=O)N2[C@@H]1SC(C)(C)[C@@H]2c1nnn[nH]1 [2-(N,N'-diethylamidinothio)acetyl] | < 0.1 |  |
| CCOC(=O)N[C@@H]1C(=O)N2[C@@H]1SC(C)(C)[C@@H]2c1nnn[nH]1 [ethoxycarbonyl] | < 0.1 |  |
| CC1(C)S[C@@H]2[C@H](N)C(=O)N2[C@H]1c1nnn[nH]1 [hydrogen, 6-Amino-2,2-dimethyl-3-(5-tetrazolyl)penam] | < 0.1 |  |
| CC(=O)N[C@@H]1C(=O)N2[C@@H]1SC(C)(C)[C@@H]2c1nnn[nH]1 [acetyl] | < 0.1 |  |
| CC1(C)S[C@@H]2[C@H](NC(=O)C(N)c3ccc(O)c(O)c3)C(=O)N2[C@H]1c1nnn[nH]1 (mixture of isomers) [DL-2-amino-2-(3,4-dihydroxyphenyl)acetyl] | < 0.1 |  |
| CC1(C)S[C@@H]2[C@H](NC(=O)[C@H](N)c3ccccc3)C(=O)N2[C@H]1c1nnn[nH]1 [D-2-amino-2-phenylacetyl] | < 0.1 |  |
| CC(C)[C@@H](N)C(=O)N[C@@H]1C(=O)N2[C@@H]1SC(C)(C)[C@@H]2c1nnn[nH]1 [D-2-amino-3-methylbutyryl] | 0.2 (≈ 0.589 µM) |  |
| CC1(C)S[C@@H]2[C@H](NC(=O)CC#N)C(=O)N2[C@H]1c1nnn[nH]1 [2-cyanoacetyl] | 0.1 (≈ 0.325 µM) |  |
| CC1(C)S[C@@H]2[C@H](NC(=O)C=CC(N)=O)C(=O)N2[C@H]1c1nnn[nH]1 [3-(carbamoyl)acryloyl] | < 0.1 |  |
| CC1(C)S[C@@H]2[C@H](NC(=O)C(N)c3ccc(Cl)cc3)C(=O)N2[C@H]1c1nnn[nH]1 (mixture of isomers) [DL-2-amino-2-(p-chlorophenyl)acetyl] | < 0.1 |  |
| CC1(C)S[C@@H]2[C@H](NC(=O)[C@H](N)c3ccc(O)c(Cl)c3)C(=O)N2[C@H]1c1nnn[nH]1 | 0.1 (≈ 0.236 µM) |  |
| CC1(C)S[C@@H]2[C@H](NC(=O)C(N)c3cc(O)ccc3Br)C(=O)N2[C@H]1c1nnn[nH]1 (mixture of isomers) |  | < 0.1 |
| CC1(C)S[C@@H]2[C@H](NC(=O)[C@H](N)c3cccs3)C(=O)N2[C@H]1c1nnn[nH]1 [D-2-amino-2-(2-thienyl)acetyl] | 0.1 (≈ 0.264 µM) |  |
| CC1(C)S[C@@H]2[C@H](NC(=O)[C@H](N)c3cccc(F)c3)C(=O)N2[C@H]1c1nnn[nH]1 [D-2-amino-2-(m-fluorophenyl)acetyl] | < 0.1 |  |

Reference: patent US3957811A, “Process for 3-(1-[arylmethyl]tetrazol-5-yl)penams” (Pfizer Inc., priority 1974, dated 1976)
